Legend:
isomerase = target: T1, isomerase (Bos taurus, UniProt Q28175); experiment: isomerase reaction: 11-cis-retinol production by RPE microsomes from all-trans-retinol; format: biochemical, bovine
T1 construct: Purified RPE microsomes were the source of the enzymes; from tissue; host or cells: bovine retinal pigment epithelium microsomes
T1 sequence (Q28175 2-533 limits assumed): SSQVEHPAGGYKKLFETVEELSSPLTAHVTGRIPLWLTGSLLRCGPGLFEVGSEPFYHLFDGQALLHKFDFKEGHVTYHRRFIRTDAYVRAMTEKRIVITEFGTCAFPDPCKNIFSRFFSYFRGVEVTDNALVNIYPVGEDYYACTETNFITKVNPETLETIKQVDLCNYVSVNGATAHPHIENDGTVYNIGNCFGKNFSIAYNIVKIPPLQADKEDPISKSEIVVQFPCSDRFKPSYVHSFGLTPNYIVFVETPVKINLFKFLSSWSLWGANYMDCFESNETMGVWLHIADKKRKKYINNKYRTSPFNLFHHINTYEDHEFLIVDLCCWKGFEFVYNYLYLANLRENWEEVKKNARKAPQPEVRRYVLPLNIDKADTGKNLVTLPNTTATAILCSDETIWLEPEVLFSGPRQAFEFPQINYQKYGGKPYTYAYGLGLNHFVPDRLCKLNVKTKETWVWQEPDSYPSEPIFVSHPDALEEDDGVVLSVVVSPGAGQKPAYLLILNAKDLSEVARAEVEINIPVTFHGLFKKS
Method: To test if 11-cis-retinylamine (11-cis Ret-NH2) affects isomerization and esterification, an in vitro assay was employed. In this assay both of the all-trans-retinyl esters formed in the reaction catalyzed by LRAT and 11-cis-retinol production by isomerase were measured (6). Purified RPE microsomes were the source of the enzymes, and all-trans-retinol was the substrate. […] Inhibition of isomerization by Ret-NH2 is not due to binding of CRALBP or competition with 11-cis-retinol for binding to CRALBP. […] An increased concentration of all-trans-retinol lowered the level of inhibition, as illustrated in FIG. 2B. […] Dixon's and Lineweaver-Burk plots in the standard assay conditions yielded Ki=0.1 μM for Ret-NH2 when all-trans-retinol (KM=0.3 μM) was assumed to be a substrate. […] This estimated value reflects the very potent nature of the inhibition by 11-cis-Ret-NH2.
Materials—Fresh bovine eyes were obtained from a local slaughterhouse (Schenk Packing Co., Inc., Stanwood, Wash.). Preparation of bovine RPE microsomes was performed according to previously described methods (Stecher et al., J Biol Chem 274:8577-85, 1999). All chemicals were purchased from Sigma-Aldrich (St. Louis, Mo.). 11-cis-Retinal was obtained from Dr. Rosalie Crouch (Charleston, S.C.).
Reaction conditions for isomerase and LRAT reaction—The isomerase reaction was performed essentially as described previously (Stecher et al., J Biol Chem 274:8577-85, 1999). The reaction was carried out in 10 mM BTP buffer, pH 7.5, 1% BSA, containing 1 mM ATP and 6 μM apo-CRALBP. To investigate inhibition properties of Ret-NH2 and its derivatives, RPE microsomes were preincubated for 5 min in 37° C. with the indicated compound in 10 mM BTP buffer, pH 7.5, 1% BSA, 1 mM ATP prior to addition of apo-CRALBP and all-trans-retinol. Ret-NH2 and its derivatives were delivered to the reaction mixture in 1 μl of DMF, and the same volume of DMF was added to the control reaction. Each experiment was performed three times in duplicate. The average values were used and the standard deviations were calculated.

[1] = tested on: regeneration of vision chromophore (11-cis-retinal); experiment: regeneration of 11-cis-retinal in mouse eyes after gavage and light bleach, HPLC retinoid analysis; format: in vivo
Method: Mice were gavaged with all-trains-Ret-NH2, exposed to intense light for 20 min, and then allowed to recover in the dark for 5 hours. The total amount of different forms of retinoids in all experiments was unchanged. […] For this experiment mice were treated with both 9-cis-retinol and all-trans-Ret-NH2, and bleached after 24 hours, and were allowed to recover for 5 hours in the dark. The presence of 9-cis-retinal was confirmed in treated animals (see peaks 4 and 4′ in FIG. 4A bottom panel, corresponding to syn- and anti-9-cis-retinal oximes, respectively). 11-cis-Retinal was not reduced and/or esterified after treatment with Ret-NH2. […] This supports the idea that Ret-NH2 is a specific inhibitor of the isomerization reaction.
A. Chromatographic separation of nonpolar retinoids from WT mouse eyes. Mice were gavaged with all-trans-Ret-NH2 24 hours prior to bleaching for 20 min at 150 cd·m^−2 W in the Ganzfeld chamber. Regeneration of 11-cis-retinal was allowed for 24 hours in the dark, and retinoids were extracted from the eye and separated by normal phase HPLC as described in Materials and Methods. The peaks were identified based on elution time and absorption spectra correspond to the following retinoids: 1, all-trans-retinyl esters; 2,2′, syn- and anti-11-cis-retinal oximes; 3, syn-all-trans-retinal oxime; 4,4′, syn- and anti-9-cis-retinal oximes; 5, all-trans-retinol. B. Changes of 11-cis-retinal oxime levels at increasing doses of all-trans-Ret-NH2 during 5 hours or 24 hours of dark adaptation. Square indicates the level of 11-cis-retinal oximes that was present in mice gavaged with vegetable oil without retinoids just after bleaching, and arrow indicates the increase of visual chromophore during 5 hours of dark adaptation. Triangles correspond to the level of 11-cis-retinal found in the mice gavaged with 50 mg/kg of 13-cis-RA. C and D. Single flash ERG responses of increasing intensity for all-trans-Ret-NH2 treated mice and control mice. Serial responses to increasing flash stimuli were obtained for all-trans-Ret-NH2 treated and control mice for selected intensities (C) and plotted as a function of a-wave and b-wave versus varying light intensities under dark-adapted conditions (D) before bleach and at 5 hours and 24 hours after bleach. The dark-adapted mice were bleached with intense constant illumination (150 cd·m^−2) for 20 min. […] SE bars are shown.
Chromatographic separation of nonpolar retinoids from WT mouse eyes. Mice were gavaged with 100 mg/kg of all-trans-Ret-NH2 24 hours prior to bleaching. Mice were next exposed to 500 cd m^−2 for 48 min bleaching in the Ganzfeld chamber. Regeneration of 11-cis-retinal was allowed for 24 hours in the dark, and retinoids were extracted from the eye and separated by normal phase HPLC as described in Materials and Methods. The peaks identified based on elution time and absorption spectra correspond to the following retinoids: 1, all-trans-retinyl esters; 2,2′, syn- and anti-1-cis-retinal oximes; 3,3′ syn- and anti-all-trans-retinal oximes; 4, all-trans-retinol.
Mice were gavaged with the solution of inhibitor in vegetable oil (control—non-treated, RPN—retinylpalmitamide, RAN—retinylacetamide, Ret—NH2-all-trans-retinylamine), kept in dark for 16 hours, then light stimulated and kept in dark for additional 5 hours before their eyes were analyzed.
Mouse retinoid extraction and analysis—Retinoid analysis was performed under dim red light as described previously (Maeda et al., J. Neurochem 85:944-956, 2003; Van Hooser et al., J Biol Chem 277:19173-82, 2002). Mice were gavaged with retinoids as described previously (Van Hooser et al., J Biol Chem 277:19173-82, 2002).

SMILES	Ki (isomerase; Dixon's and Lineweaver-Burk plots, standard assay conditions, all-trans-retinol assumed to be substrate, estimated value)	mode of isomerase inhibition (isomerase; initial rate vs concentrations of all-trans-retinol and 11-cis-Ret-NH2)	change in amount of Ret-NH2 between start and end of the assay (HPLC) (isomerase; time course of the in vitro isomerase assay)	IC50 of chromophore recovery, 5 hours recovery ([1]; 20 min high-intensity light, 5 hours dark)	IC50 of chromophore recovery, 24 hours recovery ([1]; 20 min high-intensity light, 24 hours dark)	recovery of chromophore after all 11-cis-retinal is photoisomerized ([1]; longer light treatment (100 mg/kg, 500 cd m^-2 for 48 min, 24 hours dark))	IC50 (isomerase; RPE microsomes, all-trans-retinol substrate, read-out: IC50, inhibition of 11-cis-retinol production)	retinoid levels in the eye without light exposure ([1]; 50 mg/kg, not exposed to light, after 30 hours)	11-cis-retinal in the eye after bleach and dark recovery ([1]; gavage, intense light 20 min, 5 hours in the dark)	levels of all-trans-retinyl esters in the eye ([1]; gavage, intense light 20 min, 5 hours in the dark, vs controls)	uptake, transport or oxidation of 9-cis-retinol ([1]; mice given 9-cis-retinol and all-trans-Ret-NH2, bleached after 24 hours, 5 hours dark)
CC1=C(/C=C/C(C)=C/C=C/C(C)=C/CN)C(C)(C)CCC1 [Ret-NH2, Retinylamine]	0.1 µM	reversible and can be competed out by all-trans-retinol	≤ 5%	2 mg/kg	24 mg/kg	completely blocks recovery of chromophore	–	–	–	–	–
CC1=C(/C=C/C(C)=C/C=C/C(C)=C/CN)C(C)(C)CCC1 [all-trans-Ret-NH2, all-trans-retinylamine]	–	–	–	–	–	–	0.5 µM	normal levels of retinoids	only a residual amount	elevated	did not affect
